These results are taken from patent US20040229246A1, “Diagnostic markers for therapeutic treatment” (Can-Fite Biopharam Ltd., priority 2002, published 2004).

Test [1] concerns the target T1, A3AR (Mus musculus, UniProt Q61618).
T1 construct: endogenous in cells; host or cells: B16-F10 melanoma cells
T1 sequence (Q61618 1-319): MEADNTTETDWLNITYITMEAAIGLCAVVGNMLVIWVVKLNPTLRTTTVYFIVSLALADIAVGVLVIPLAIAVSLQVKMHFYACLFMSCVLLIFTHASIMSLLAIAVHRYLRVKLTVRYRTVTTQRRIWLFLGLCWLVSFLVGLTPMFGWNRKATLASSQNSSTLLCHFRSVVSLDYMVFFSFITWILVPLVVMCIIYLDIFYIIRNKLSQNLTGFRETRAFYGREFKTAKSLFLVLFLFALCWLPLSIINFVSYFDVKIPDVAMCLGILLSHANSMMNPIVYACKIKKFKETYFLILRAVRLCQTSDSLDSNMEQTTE
The experiment in a line: Western blot analysis of A3AR protein in B16-F10 melanoma cells. The test is classed as cell-based. Particulars: B16-F10 melanoma cells, Western blot. The method, then: (§1) To detect the level of expression of the A3AR proteins Western blot analysis was performed. Cells were incubated in the presence and absence of IB-MECA (10 nM), MRS1523 (10 nM), Forskolin (50 nM), 8 Br cAMP (100 μM), Cycloheximide 20 μg/ml or MG 132 (20 nM) for different time periods at 37° C. Cells were then rinsed with ice-cold PBS and transferred to ice-cold lysis buffer (TNN buffer, 50 mM Tris buffer pH=7.5, 150 mM NaCl, NP 40). In the experiment examining the effect of trypsin on A3AR expression, cells were incubated with 0.5 ml of 0.25% trypsin for 5 minutes. The trypsinized cells were washed again with ice-cold PBS, harvested by centrifugation and subjected to lysis in TNN buffer. Cell debris was removed by centrifugation for 10 minutes, at 7500 xg. The supernatant was utilized for Western Blot analysis. Protein concentrations were determined using the Bio-Rad protein assay dye reagent. Equal amounts of the sample (50 μg) were separated by SDS-PAGE, using 12% polyacrylamide gels. The resolved proteins were then electroblotted onto nitrocellulose membranes (Schleicher & Schuell, Keene, NH, USA). Membranes were blocked with 1% bovine serum albumin and incubated with the desired primary antibody (dilution 1:1000) for 24 hours at 4° C. Blots were then washed and incubated with a secondary antibody for 1 hour at room temperature. Bands were recorded using BCIP/NBT color development kit (Promega, Madison, W1, USA). Data presented in the different figures are representative of at least three different experiments.
Receptor internalization by treating melanoma cells with trypsin, which removes the cell surface receptor, was examined.
Time dependent expression of A3AR in the melanoma cells was examined by Western blot analysis.
On the technique in general: In western blotting, separated proteins are transferred to a membrane and probed.

Test [2] has as its system adjuvant induced arthritis. Nature of the test: Adjuvant induced arthritis (AIA) in rats, clinical and histological score. In kind it is in vivo. Here is the method: AIA in Rats: Female Lewis rats, aged 8-12 weeks, obtained from Harlan Laboratories (Jerusalem, Israel), were injected subcutaneously (s.c.) at the tail base with 100 μl of suspension composed of incomplete Freund's adjuvant (IFA) with 10 mg/ml heat killed Mycobacterium tuberculosis, (Mt) H37Ra, (Difco, Detroit, USA). To assess the clinical disease activity score, the animals were inspected every second day for clinical arthritis. The scoring system ranged from 0-4 of each limb: 0-no arthritis; 1-redness or swelling of one toe/finger joint; 2-redness and swelling of more than one toe/finger joints; 3-the ankle and tarsal-metatarsal joints involvement; 4-entire paw redness or swelling. The arthritic score was calculated by adding the four individual legs' score to a maximum of 16. For histological scoring, Animals were sacrificed, the legs were removed up to the knee level, fixed in 10% formaldehyde, decalcified, dehydrated, paraffin-embedded, cut into 4 μm sections and stained by Hematoxylin-Eosin. The assessment of all pathologic findings were performed blind using semi-quantitative grading scales of 0 to 4 for the following parameters: a) extent of inflammatory cells' infiltration to the joint tissues; b) synovial lining cell hyperplasia; c) pannus formation; and d) joint cartilage layers destruction. […] TNF-α was measured in synovia, DLN and spleen tissues derived from control and CF101 treated rats. […] Protein concentrations were determined using the Bio-Rad protein assay dye reagent. […] Bands were recorded using BCIP/NBT color development kit (Promega, Madison, Wis., USA). Densitometry of protein expression was normalized against β-actin and expressed as % of control. […]

In test [3] the test system is A3AR, NF-κB, c-myc, cyclin D1. Nature of the test: Immunoblot analysis of proteins extracted from prostate carcinoma (PC-3) cells. The test is classed as cell-based. Here is the method:
as §1
The effect of IB-MECA on key proteins downstream to A3AR activation in prostate carcinoma cells was also examined in a manner similar to that performed with melanoma cells (see above).

Test [4] concerns A3AR. Nature of the test: Northern blot analysis of A3AR mRNA in B16-F10 melanoma cells. The conditions noted are these: B16-F10 melanoma cells treated with IB-MECA. The test is classed as cell-based. Here is the method: Total RNA was isolated from B16-F10 melanoma cells treated with IB-MECA, utilizing Tri-reagent (Sigma, Saint Louis). The samples were then subjected twice to phenol:chloroform extraction and washed with chloroform. RNA was precipitated with sodium acetate/ethanol following washing with ethanol, then denatured, separated (25 μg per lane) in 1.1% formaldehyde agarose gels and transferred to Hybond-N membrane. The 390 bp EcoRI fragment from A3AR cDNA clone of mouse (TAA3I.S), kindly supplied by Dr Kathia Ravid, was prepared by random-primed synthesis. Probes were used in RNA blot analysis at a hybridization temperature of 42° C. in the presence of 50% formamide.

As for `CNC(=O)[C@H]1O[C@@H](n2cnc3c(NCc4cccc(I)c4)ncnc32)[C@H](O)[C@@H]1O` [IB-MECA, 1-deoxy-1-[6[[(3-iodophenyl)methyl]amino]-9H-purine-9-yl]-N-methyl-β-D-ribofura-nuronaminde], the “time dependent expression of A3AR” value at A3AR [1] (different time points) is reported as “sinusoidal pattern”. The A3AR protein level entry at A3AR [1] (versus untreated cells) is reported as “down-regulated”. The “clinical score (inflammatory response)” value in test [2] (10 μg/kg orally twice daily, versus vehicle) is given as “anti-inflammatory response”. Besides, the histological score result in test [2] (day 28, versus control) was “anti-inflammatory activity”. Further, in test [3], the A3AR level result was “down-regulation”, the NF-κB level result is reported as “down-regulation”, the c-myc level entry was “down-regulation” and the “cyclin D1 level” value is “down-regulation”. Further, the “A3AR mRNA expression level” value in the test with A3AR [4] is recorded as “increase”.
